What was measured:
M1R = molecular target: T1, M1R (Homo sapiens, UniProt P11229); assay: M1R-induced increase of THIK-1 channel current, whole cell patch clamp in HEK293T cells; format: cell-based; settings: BAPTA 5 mM in pipette solution, n = 8
T1 construct: expressed in transfected cells; host or cells: HEK293T
T1 sequence (P11229 1-460): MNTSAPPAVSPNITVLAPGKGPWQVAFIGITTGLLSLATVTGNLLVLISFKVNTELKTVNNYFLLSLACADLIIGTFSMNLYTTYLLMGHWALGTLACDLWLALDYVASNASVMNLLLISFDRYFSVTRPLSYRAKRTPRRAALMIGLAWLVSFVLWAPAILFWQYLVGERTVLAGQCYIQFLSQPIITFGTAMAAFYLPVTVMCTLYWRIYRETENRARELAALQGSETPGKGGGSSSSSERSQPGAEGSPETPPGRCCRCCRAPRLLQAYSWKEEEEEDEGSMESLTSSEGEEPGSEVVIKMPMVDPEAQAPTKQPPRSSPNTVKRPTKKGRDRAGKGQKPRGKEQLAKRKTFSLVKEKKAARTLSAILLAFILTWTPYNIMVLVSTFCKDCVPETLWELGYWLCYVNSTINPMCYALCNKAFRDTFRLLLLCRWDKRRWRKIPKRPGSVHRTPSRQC
Source text: (§1) Coding region of mGu2 (M1-P840) was amplified by conventional PCR with designed primers and the resulting product was subcloned into pEYFP-N1 vector at the BglII and EcoRI sites. The cDNAs for mouse THIK-2 channel and dimeric THIK channels were subcloned into pcDNA3.1(-) vector. To increase the surface membrane expression of the THIK-2 channel, 29 residues (Ser2-Ser30) were removed (ΔN-THIK-2). […] Ci-VSP-IRES-GFP vector was kindly gifted by Dr. Y. Okamura (Osaka University, Osaka, Japan). HEK293T cells or CHO-K1 cells were seeded on glasses and transfected with the plasmid DNAs for THIK channels, receptors and a transfection marker of yellow fluorescent protein (YFP). Electrophysiological experiments were performed 24–72 h after the transfection. […] Pertussis toxin (PTX) was purchased from Wako (Osaka, Japan). […] All reagents were dissolved at high concentration and stored at -20 °C as the stock solutions. The stock reagent solution was diluted at concentrations for the electrophysiological experiments. PTX was solved in the culture medium (final concentration, 300 ng/mL) and cells were incubated in it for more than 16 h. U73122 or U73343 (final concentration, 2 μM each) was dissolved in Hanks’ Balanced Salt Solution (HBSS, Invitrogen, Carlsbad, CA, USA) supplemented with 1 mM Ca^2+ and 0.3 mM Mg^2+. Cells were incubated in HBSS with U73122 or U73343 for 10 min at room temperature before the whole cell current recording.
(§2) Composition of bath solution was (in mM) 140 NaCl, 4 KCl, 1 CaCl2, 0.3 MgCl2, 10 HEPES (pH 7.4 adjusted with NaOH). The pipette solution for whole cell patch clamp experiments contained (mM) 130 KCl, 5 Na2-ATP, 3 EGTA, 0.1 CaCl2, 10 HEPES, 4 MgCl2, (pH 7.3 adjusted with KOH). GTP (0.3 mM) was supplemented in the pipette solution. Once the whole cell configuration was established, the cell was held at -80mV and ramp pulses (-120mV to +40mV for 0.4 sec) were applied every 5 sec. Various concentrations of the agonists were applied using a fast perfusion system (VC77SP, Warner Instruments, Hamden, CT, USA). The PKC inhibitor chelerythrine was included in the pipette solution.
(§3) The amplitude of the THIK-1 channel current at 0 mV was measured from every trace induced by the ramp pulse protocol to minimize the fraction of non-selective cationic leak current. The current amplitude before the agonist application was set as the basal current amplitude (I0). The effects of GPCRs on the THIK-1 channel were evaluated as the ratio of the current amplitude after the agonist application to I0 (Iagonist/I0). The EC50 values were estimated by fitting the concentration response curve to a Hill equation (Origin2016; OriginLab, Northampton, MA, USA). […] The effects of A2aR on the Gi/o-R-induced current increase of the THIK-1 channel was estimated as follows. […] All data are shown as means and S.D. The statistical significance between two or more than two groups was estimated by unpaired Student’s t-test or by a one-way analysis of variance (ANOVA) followed by Tukey’s test, respectively. […] Values of p≤ 0.05 were considered as statistically significant (***:p≤0.001, **:0.001<p≤0.01, *:0.01<p≤0.05, n.s.:p>0.05).

[1] = test system: endogenously expressed channels in HEK293T cells; assay: Effect of receptor stimulation on the endogenous current in HEK293T cells without THIK-1; format: cell-based; settings: HEK293T transfected with GABABR, no THIK-1
Source text: The amplitude of the current increase at the 15th trace (ΔI15th) after the application of GABA or oxo-M were normalized to that at the 5th traces (ΔI5th) with or without additional activation of A2aR (ΔI15th/ΔI5th).
The current density at 0 mV (I0) in HEK293T cell transfected with indicated receptors and the effects of the receptor stimulation are shown as Mean and S.D.

[2] = test system: intracellular cAMP (Gs signaling, A2aR); assay: Intracellular cAMP, FRET based cAMP indicator in HEK293T cells; format: cell-based; settings: NECA 10 μM
Method: HEK293T cells were culture on the glass bottom dishes and transfected with cDNAs for FRET based cAMP indicators and A2aR. […] transfection, cells were incubated in bath solution containing (mM) 140 NaCl, 1 CaCl2, 4 KCl, 0.3 MgCl2, 10 HEPES (pH was adjusted to 7.4 with NaOH) and fluorescent signals were acquired as previously described. CFP was excited by 442 nm laser line and emitted light was passed through S470/30 and S535/30 filters (Chroma), respectively. The fluorescence images were then amplified by an image intensifier unit (C8600, Hamamatsu Photonics) and recorded every 5 s using a cooled CCD camera (Qimage Retiga 6000, Roper Scientific). A laser switching controller (Olympus) was operated by using MetaFluor imaging software (Universal Imaging). The fluorescent intensities of CFP and YFP upon the CFP excitation were measured from fluorescent cells and cell free background.
Time dependent changes of the FRET efficiency of the FRET based cAMP indicator (FFRET/FCFP) are shown. Black bars show the application of the reagents, which was carried out by perfusion of the chamber (0.2-0.3 mL bath volume) with bath solution (1 mL) containing the reagent. […] The decrease in FRET were thought to be caused by the activation of the endogenous A2aR (Fig. S2E). Symbols show mean and SD.

[3] = molecular target: T2, M1R-YFP / ΔN-THIK-2 channel (Homo sapiens, UniProt P11229); assay: M1R-YFP-induced increase of ΔN-THIK-2 channel current in CHO-K1 cells; format: cell-based, mouse; settings: oxo-M 10 μM
T2 construct: expressed in transfected cells; host or cells: CHO-K1
T2 sequence (P11229 1-460): T1 sequence (P11229 1-460)
Source text: as §1, with “Cells were incubated in HBSS with U73122 or U73343 for 10 min at room temperature before the whole cell current recording.” left out

THIK-1 channel = assay: Basal current (I0) density of THIK-1 channel at 0 mV in HEK293T cells; format: cell-based; settings: 0 mV, before agonist
Source text: as §1, §2, §3

mGlu1 = molecular target: T3, mGlu1 (Homo sapiens, UniProt Q13255); assay: mGlu1-induced increase of THIK-1 channel current, whole cell patch clamp in HEK293T cells; format: cell-based; settings: 2 μM for 10 min; glutamate 1 mM
T3 construct: expressed in transfected cells; host or cells: HEK293T
Source text: as §1, with “PTX was solved in the culture medium (final concentration, 300 ng/mL) and cells were incubated in it for more than 16 h. U73122 or U73343 (final concentration, 2 μM each) was dissolved in Hanks’ Balanced Salt Solution (HBSS, Invitrogen, Carlsbad, CA, USA) supplemented with 1 mM Ca^2+ and 0.3 mM Mg^2+. Cells were incubated in HBSS with U73122 or U73343 for 10 min at room temperature before the whole cell current recording.” left out
The amplitude of the THIK-1 channel current at 0 mV was measured from every trace induced by the ramp pulse protocol to minimize the fraction of non-selective cationic leak current. […] The effects of GPCRs on the THIK-1 channel were evaluated as the ratio of the current amplitude after the agonist application to I0 (Iagonist/I0). […]

T3 sequence (Q13255 19-1194): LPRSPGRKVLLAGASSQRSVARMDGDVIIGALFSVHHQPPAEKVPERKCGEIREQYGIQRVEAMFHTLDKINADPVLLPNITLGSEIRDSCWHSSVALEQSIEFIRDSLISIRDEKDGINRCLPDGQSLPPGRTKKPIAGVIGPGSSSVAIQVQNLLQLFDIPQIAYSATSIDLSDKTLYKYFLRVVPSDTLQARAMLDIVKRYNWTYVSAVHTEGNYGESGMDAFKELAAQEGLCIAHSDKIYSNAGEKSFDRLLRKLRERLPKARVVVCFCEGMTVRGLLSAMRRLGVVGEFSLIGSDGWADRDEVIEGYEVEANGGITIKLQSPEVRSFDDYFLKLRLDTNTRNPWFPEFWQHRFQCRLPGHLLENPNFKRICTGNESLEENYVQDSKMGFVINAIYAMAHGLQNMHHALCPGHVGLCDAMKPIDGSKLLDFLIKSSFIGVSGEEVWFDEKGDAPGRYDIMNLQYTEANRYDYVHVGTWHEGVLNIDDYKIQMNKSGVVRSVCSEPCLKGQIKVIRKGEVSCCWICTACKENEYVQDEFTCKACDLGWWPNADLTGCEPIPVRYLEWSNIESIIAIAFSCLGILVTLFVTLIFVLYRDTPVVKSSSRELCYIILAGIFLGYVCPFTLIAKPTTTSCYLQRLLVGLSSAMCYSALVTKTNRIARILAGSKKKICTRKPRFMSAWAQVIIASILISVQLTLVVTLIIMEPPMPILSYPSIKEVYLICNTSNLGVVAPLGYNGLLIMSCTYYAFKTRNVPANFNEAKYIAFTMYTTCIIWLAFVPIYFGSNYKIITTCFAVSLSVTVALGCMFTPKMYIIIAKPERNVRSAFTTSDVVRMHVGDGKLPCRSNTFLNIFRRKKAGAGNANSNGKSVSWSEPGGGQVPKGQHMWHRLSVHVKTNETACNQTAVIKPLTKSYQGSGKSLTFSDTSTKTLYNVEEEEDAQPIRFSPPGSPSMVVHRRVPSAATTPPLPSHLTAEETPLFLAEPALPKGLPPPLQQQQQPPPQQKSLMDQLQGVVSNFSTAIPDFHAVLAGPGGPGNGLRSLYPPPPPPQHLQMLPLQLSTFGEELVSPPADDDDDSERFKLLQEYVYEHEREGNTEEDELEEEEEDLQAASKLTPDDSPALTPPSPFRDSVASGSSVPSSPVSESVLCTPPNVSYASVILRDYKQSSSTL

SMILES: O=C(O)CN(CC(=O)O)c1ccccc1OCCOc1ccccc1N(CC(=O)O)CC(=O)O [BAPTA]
- effect of the M1R activation (Iagonist/I0) (M1R): 3.0 ± 1.0

SMILES: NCCCC(=O)O [GABA]
- Effect of agonist (Iagonist/I0) [1]: 1.03 ± 0.06

SMILES: CCNC(=O)[C@H]1O[C@@H](n2cnc3c(N)ncnc32)[C@H](O)[C@@H]1O [NECA, 5’-N-ethylcarboxamidoadenosine]
- Gs signaling (cAMP indicator) ([2]; HEK293T transfected with heterologous A2aR): fully activated
- intracellular cAMP ([2]; HEK293T without heterologous A2aR (endogenous A2aR), effect partial): increased the intracellular cAMP

SMILES: COc1ccc2c(c1)CC[C@@H]1[C@@H]2CC[C@]2(C)[C@@H](NCCCCCCN3C(=O)C=CC3=O)CC[C@@H]12 [U73122]
- effect of M1R-YFP on ΔN-THIK-2 channel after PLC reagent [3]: inhibited
- Basal current (I0) density of THIK-1 channel (THIK-1 channel; THIK-1 + M1R, PLC reagent 2 μM 10 min): 35.7 ± 34.7 (9)^n.s pA/pF
- Basal current (I0) density of THIK-1 channel (THIK-1 channel; THIK-1 + M3R, PLC reagent 2 μM 10 min): 99.2 ± 117.3 (7)^n.s pA/pF
- Basal current (I0) density of THIK-1 channel (THIK-1 channel; THIK-1 + mGlu1, PLC reagent 2 μM 10 min): 112.2 ± 121.4 (10)^n.s pA/pF
- effect of mGlu1 on THIK-1 current after PLC reagent (mGlu1): inhibited

Reference: PMC10132538, “Regulation of the two-pore domain potassium channel, THIK-1 and THIK-2, by G protein coupled receptors” (PLOS ONE, 2023)
